One test has as its target T1, Neutrophil elastase (Homo sapiens, UniProt P08246).
T1 sequence (P08246 whole entry): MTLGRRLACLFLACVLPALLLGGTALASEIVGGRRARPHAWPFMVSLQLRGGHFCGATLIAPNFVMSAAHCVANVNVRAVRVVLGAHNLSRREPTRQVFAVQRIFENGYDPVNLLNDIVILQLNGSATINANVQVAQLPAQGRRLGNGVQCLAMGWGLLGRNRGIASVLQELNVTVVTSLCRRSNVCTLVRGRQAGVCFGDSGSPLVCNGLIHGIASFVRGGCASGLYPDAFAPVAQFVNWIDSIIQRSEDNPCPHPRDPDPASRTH
The test can be described thus: Inhibitory activity against human leukocyte elastase using MeO-Suc-Ala-Ala-Pro-Val-pNA (416 uM) as substrate.
As usually defined, the IC50 is the concentration that inhibits the measured activity by half. The compound `COc1ccc2c(c1)c1c(O)oc(=O)nc1n2CCc1ccccc1` [6-Methoxy-9-phenethyl-1,9-dihydro-[1,3]oxazino[4,5-b]indole-2,4-dione] showed a 50% inhibitory concentration (IC50) of over 1000 µM.

A further test deals with T1, Neutrophil elastase. The test can be described thus: ChEBML_86533. As for the experimental part:
Inhibitory activity against human leukocyte elastase using MeO-Suc-Ala-Ala-Pro-Val-pNA (416 uM) as substrate;No Inhibition
`CCCCn1c(C)c(C)c2c(O)oc(=O)nc21` [1-Butyl-2,3-dimethyl-1,7-dihydro-5-oxa-1,7-diaza-indene-4,6-dione] registered an IC50 of over 1000 µM.
`COc1ccc2c(c1)c1c(O)oc(=O)nc1n2Cc1ccccn1` [6-Methoxy-9-pyridin-2-ylmethyl-1,9-dihydro-[1,3]oxazino[4,5-b]indole-2,4-dione] gave an IC50 of over 1000 µM.
With `COCCn1c2ccc(OC)cc2c2c(O)oc(=O)nc21` [6-Methoxy-9-(2-methoxy-ethyl)-1,9-dihydro-[1,3]oxazino[4,5-b]indole-2,4-dione], the IC50 was over 1000 µM.
Turning to `COc1ccc2c(c1)c1c(O)oc(=O)nc1n2C1CCCCC1` [9-Cyclohexyl-6-methoxy-1,9-dihydro-[1,3]oxazino[4,5-b]indole-2,4-dione], the IC50 is over 1000 µM.
As for `COc1ccc2c(c1)c1c(O)oc(=O)nc1n2CC(OC)OC` [9-(2,2-Dimethoxy-ethyl)-6-methoxy-1,9-dihydro-[1,3]oxazino[4,5-b]indole-2,4-dione], the IC50 is over 1000 µM.
For `Cc1c(C)n(C2CCCCC2)c2nc(=O)oc(O)c12` [1-Cyclohexyl-2,3-dimethyl-1,7-dihydro-5-oxa-1,7-diaza-indene-4,6-dione], the IC50 is over 1000 µM.
Turning to `COCCn1c2ccc(OC(C)=O)cc2c2c(O)oc(=O)nc21` [Acetic acid 9-(2-methoxy-ethyl)-2,4-dioxo-1,2,4,9-tetrahydro-[1,3]oxazino[4,5-b]indol-6-yl ester], the IC50 was over 1000 µM.

The record behind these values is BindingDB's records for doi:10.1016/S0960-894X(01)80270-5 (1994).
